Results taken from publication PMC4350077, “Mechanism of Action of Thalassospiramides, A New Class of Calpain Inhibitors” (Scientific Reports, 2015).
Read-outs that look alike come from different tables or passages of the source.

Molecular target: T1, human calpain 1 protease (HCAN1) (Homo sapiens, UniProt P07384)
T1 construct: gene CAPN1; with Calpain small subunit 1
T1 sequence (P07384 2-714): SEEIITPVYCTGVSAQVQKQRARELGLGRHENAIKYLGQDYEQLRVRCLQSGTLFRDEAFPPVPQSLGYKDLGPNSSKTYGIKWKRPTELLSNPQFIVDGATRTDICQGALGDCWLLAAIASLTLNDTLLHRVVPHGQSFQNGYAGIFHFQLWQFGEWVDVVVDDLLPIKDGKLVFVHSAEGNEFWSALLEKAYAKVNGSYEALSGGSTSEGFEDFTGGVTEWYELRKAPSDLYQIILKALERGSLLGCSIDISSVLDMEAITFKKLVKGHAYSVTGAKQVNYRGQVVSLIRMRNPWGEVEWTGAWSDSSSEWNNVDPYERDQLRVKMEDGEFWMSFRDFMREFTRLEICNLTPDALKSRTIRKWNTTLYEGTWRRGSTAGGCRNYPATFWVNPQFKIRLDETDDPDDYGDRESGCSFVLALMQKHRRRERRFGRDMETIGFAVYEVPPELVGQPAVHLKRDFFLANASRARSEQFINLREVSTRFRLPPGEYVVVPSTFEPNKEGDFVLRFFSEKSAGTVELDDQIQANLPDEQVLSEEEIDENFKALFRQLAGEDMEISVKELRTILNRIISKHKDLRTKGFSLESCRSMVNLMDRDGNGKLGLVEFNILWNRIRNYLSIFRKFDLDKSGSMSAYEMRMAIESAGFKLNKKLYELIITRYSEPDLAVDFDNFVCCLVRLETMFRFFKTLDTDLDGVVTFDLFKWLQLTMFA
T1 sequence (P04632 1-268 partner): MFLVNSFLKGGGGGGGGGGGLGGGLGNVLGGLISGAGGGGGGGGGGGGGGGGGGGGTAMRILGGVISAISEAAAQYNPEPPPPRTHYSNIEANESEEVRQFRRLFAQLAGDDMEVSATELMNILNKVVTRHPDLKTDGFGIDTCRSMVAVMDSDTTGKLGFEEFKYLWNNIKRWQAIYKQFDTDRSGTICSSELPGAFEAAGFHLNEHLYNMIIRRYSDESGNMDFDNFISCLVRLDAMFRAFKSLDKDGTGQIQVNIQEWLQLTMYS
Assay: fluorescence calpain activity assay kit (Ac-LLY-AFC)
Assay type: biochemical

IC50	IC50 (Ac-LLY-AFC substrate, 37 °C, 1 h, covalent (Michael addition to Cys115))	Molecule
> 5000 nM		CCCCCCCCCC(=O)N[C@@H](CO)C(=O)N[C@H](C(=O)N[C@@H](CO)[C@@H](O)CC(=O)N[C@H](C(=O)N[C@@H]1CCC(=O)N[C@@H](C(C)C)C(=O)N(C)[C@@H](Cc2ccc(O)cc2)C(=O)OC1)C(C)C)C(C)C [compound 3, 3]
	3.4 ± 1.2 nM	Thalassospiramide C [compound 4]
